Publication PMC9436958, “The synthesis of novel thioderivative chalcones and their influence on NF-κB, STAT3 and NRF2 signaling pathways in colorectal cancer cells” (Scientific Reports, 2022)

How the values were obtained:
Type in all cases: cell-based
[1] = test system: DLD-1 cells; test: Wound healing assay (cell migration); settings: 24 h, 4 at standard concentration (1 μM), BAY 11-7082 5 µM
Description: Cell migration was assessed by the wound healing assay. DLD-1 cells were seeded into 24-well plates (5 × 10^5 cells per well) and were grown overnight to reach confluency. A scratch was performed using a 10 μl tip, wells were rinsed twice with PBS buffer to remove detached cells, and fresh medium with reduced FBS concentration (0.5%) containing the tested compounds was added. Subsequently, representative microscopic photographs of scratch areas were taken by JuLI FL microscope (NanoEntek, South Korea) direct after the addition of compounds and after 24 h. Area covered by cells (%) was assessed using JuLI FL software and the difference in the coverage of the growth area by DLD-1 cells between 0 and 24 h time points was calculated for each well. The experiment was repeated three times. The relative effect of the tested compounds on cell migration was calculated by comparing the difference in cell coverage area between compound-treated cells and DMSO-vehicle control (tested compound [area 24 h − area 0 h] / DMSO-vehicle control [area 24 h − area 0 h]).

[2] = test system: STAT3; test: Western blot, STAT3 protein level; settings: 4 at 1 μM
Description: (§1) Cytosolic and nuclear extracts were prepared using a Nuclear/Cytosol Fractionation Kit (BioVision Research, USA). Cytosolic extracts (for NF-κBp65, NF-κBp50, COX-2, iNOS, STAT3, c-Myc, Bcl-xl, Nrf2, SOD, GSTP, EGFR, Akt, p-Akt, Keap1, IKKα/β and β-actin) or nuclear extracts (for NF-κBp65, NF-κBp50, STAT3, p-STAT3, Nrf2, p-Nrf2 and lamin) were separated on 7.5%, 10% or 12% SDS–PAGE slab gels. Then, the proteins were transferred to a nitrocellulose Immobilon-P membrane. After blocking for 2 h with 10% skimmed milk, proteins were incubated with primary antibodies against NF-κBp65, NF-κBp50, COX-2, iNOS, STAT3, p-STAT3, c-Myc, Bcl-xl, Nrf2, p-Nrf2, SOD, GSTP, EGFR, Akt, p-Akt, Keap1, IKKα/β, β-actin, and lamin. Alkaline phosphatase (AP)-labeled anti-rabbit IgG, anti-goat IgG, and anti-mouse IgG secondary antibodies (Bio-Rad Laboratories, USA), as well as horseradish peroxidase (HRP)-conjugated anti-mouse IgG (Boster Bio, USA) secondary antibodies were used in the staining reaction. Bands were visualized by the AP Conjugate Substrate Kit NBT/BCIP or the chemiluminescent HRP substrate of the Clarity ECL Kit (Bio–Rad Laboratories, USA). The amount of immunoreactive product in each lane was determined using a ChemiDoc Imaging System (Bio–Rad Laboratories, USA). Values were calculated as relative absorbance units (RQ) per mg of protein and expressed as a percentage of the control.

[3] = test system: NF-κB p65; test: Transcription factor ELISA, NF-κB p65 binding to DNA; settings: DLD-1 cells (context); 1, 4 at 1 μM; 2, 8 at 5 μM; vs control
Description: To estimate NF-ΚB (p50 and p65 subunits) STAT3 and Nrf2 activation, enzymatic immunoassays with the Transcription Factor ELISA Kit (TransAM™NF-κB, TransAM™STAT3/TransAM™Nrf2, Active Motif, Carlsbad CA, USA) were used following the manufacturer’s protocol. Briefly, proper consensus-site double-strand oligonucleotides (NF-κB—5′-GGGACTTTCC-3′; STAT3-5’—TTCCCGGAA-3’; Nrf2-5ʹ—[…]-3ʹ) were immobilized on an ELISA plate and incubated for one hour with the nuclear extracts. The activated subunits bound to DNA were recognized with a specific primary antibody and detected with an HRP-conjugated secondary antibody. The number of subunits was determined by spectrophotometry at λ = 450 nm. The number of p50, and p65 subunits, STAT3, as well as the amount of Nrf2 contained in the DNA-binding complex, corresponded to the activated NF-κB, STAT3, or Nrf2 transcription factors.

[4] = test system: COX-2; test: COX-2 expression (qRT-PCR mRNA, Western blot protein); settings: 4 at 1 μM
Description: as §1
(§2) Total RNA from cells was isolated with the GeneMatrix Universal DNA/RNA/Protein Purification Kit (EurX, Poland). For the qRT-PCR analyses, the Maxima SYBR Green I/ROX qPCR Master Mix (2×) (Thermo Fisher Scientific, USA) and the thermal cycler LightCycler (Roche, Germany) were used. The protocol started with 5 min of enzyme activation at 95 °C, followed by 40–50 cycles at 95 °C for 15 s, 56 °C for 20 s, 72 °C for 40 s, and final elongation at 72 °C for 5 min. Melting curve analysis was used for amplicon verification. The expression levels of TATA-box-binding protein (TBP) and porphobilinogen deaminase (PBGD) were used to normalize the data. The Pfaffl comparative method was used to calculate fold change. Primers were designed using Beacon Designer software (the sequences of primers used to analyze genes are listed in Table 2 of the supplementary materials).

[5] = test system: NF-κB p65; test: Western blot, NF-κB p65 protein level; settings: 4 at 1 μM, vs control
Description: as §1

[6] = test system: p-Nrf2; test: Western blot, p-Nrf2 protein in nuclear fraction; settings: HCT116 line; 5 μM
Description: as §1

[7] = test system: NF-κB p65; test: qRT-PCR, NF-κB p65 mRNA; settings: DLD-1 cells; 5 μM
Description: as §2

[8] = test system: GSTP; test: GSTP expression (qRT-PCR mRNA, Western blot protein); settings: DLD-1 cells; 5 at 5 μM
Description: as §1, with “control. […]” for “control.”

[9] = test system: Nrf2; test: qRT-PCR, Nrf2 mRNA; settings: 5 at 5 μM
Description: as §2

[10] = test system: DLD-1 cells; test: Cell cycle distribution, PI staining, flow cytometry, DLD-1; settings: 48 h, BAY 11-7082 5 µM, 5 in higher (doubled) concentration
Description: The analysis of the cell cycle distribution was performed by propidium iodide (PI) staining. The addition of RNase A improved the specificity of PI binding to DNA. The Muse Cell Cycle Kit (Luminex, USA) and flow cytometric detection were performed with the Muse Cell Analyzer (Merck, Germany), according to the manufacturer’s protocol. Briefly, cells were seeded (2 × 10^5 cells per well) in 6-well plates and on the following day the analyzed compounds were added. Topotecan (Sigma-Aldrich, USA) was used as a positive control of cell cycle arrest. After 48 h cells were collected by trypsinization, fixed in cold 70% ethanol and stored at –20 °C. Then, fixed cells were collected and stained with PI, subjected to 30 min incubation at room temperature in the dark and analyzed by flow cytometry. Three independent experiments were performed. Data were analyzed by Muse 1.5 Analysis Software (Merck, Germany).

[11] = test system: SOD; test: SOD expression (qRT-PCR mRNA, Western blot protein); settings: HCT116 cells; 5 μM
Description: as §1
as §2, with “Primers were designed using Beacon Designer software (the sequences of primers used to analyze genes are listed in Table 2 of the supplementary materials).” left out

SMILES: COc1cc(C(=O)/C=C/c2cccc(SC)c2)cc(Br)c1OC [chalcone 4]
- reduction of cell migration rate (wound healing) vs DMSO-treated cells [1]: approximately 15%
- decrease in the nuclear level of STAT3 protein ([2]; DLD-1 cells, 2 at 5 μM): 21%
- decrease in the nuclear level of STAT3 protein ([2]; HCT116 cells): 22%
- reduction of the binding of the p65 subunit to DNA [3]: 21%
- COX-2 protein level ([4]; DLD-1 cells, cytosolic fraction): reduced COX-2 protein levels
- COX-2 transcription ([4]; DLD-1 cells, 3, 6 at 5 μM): statistically significant reduction
- COX-2 expression, protein level ([4]; HCT116 cells, 2 at 5 μM): reduction of COX-2 expression
- COX-2 expression, transcript level ([4]; HCT116 cells, 2 at 5 μM): reduction of COX-2 expression
- decrease of p65 level in the nuclear fraction ([5]; DLD-1 cells): 22%
- decrease of p65 level in the nuclear fraction ([5]; HCT116 cells): 26%

SMILES: COc1cc(/C=C/C(=O)c2cc(Br)c(SC)c(OC)c2)ccc1SC [chalcone 5]
- increase in the nuclear level of p-Nrf2 [6]: 85%
- inhibitory effect on p65 subunit transcription [7]: most potent inhibitory effect
- GSTP expression and protein levels [8]: significantly increased GSTP expression and protein levels
- increase in Nrf2 transcription ([9]; DLD-1 line): 77%
- increase in Nrf2 transcription ([9]; HCT116 line): 45%
- cell cycle distribution (in words) [10]: slightly enriching S phase
- levels of SOD mRNA and protein [11]: increased levels of SOD mRNA and protein
